Series [1] deals with HaCaT cells. The arrangement: method as in PMID 26162435. As to conditions: previously described; cited from earlier work.
Series [2] relates to S. aureus MDR #1. The protocol:
(§1) Antimicrobial susceptibility was evaluated by the broth microdilution assay to determine the MIC as already described by Buommino et al.[71] The bacterial suspension in Muller Hinton (MH) at a concentration of 2 × 10^6 cell/mL in the mid-log phase was prepared. Aliquots of 50 μL of the bacterial suspension were added to 50 μL of MH containing serial 2-fold dilutions of the peptides (from 100 to 0.78 μM) that were previously prepared in a 96-well plate. […] Each measurement was performed in triplicate. MICs were obtained from three identical readings of four independent experiments. The antibiofilm activity of the tested peptides was evaluated as reported by Casciaro et al.[72] Microbial culture was grown at 37 °C until it reached an optical density (OD) of 0.8 (λ = 590 nm), and then it was diluted to a cell density of 1 × 10^6 colony-forming units (CFUs)/mL.

Series [3] relates to P. aeruginosa ATCC 25853. As for the experimental part: as §1
In series [4] the test system is S. epidermidis ATCC 12228. As for the experimental part:
as §1

For series [5], the system named is S. aureus MDR #4. The protocol: as §1
Series [6] has as its system S. aureus ATCC 25923. As for the experimental part:
as §1

Series [7] concerns A. baumannii ATCC 19606. As for the experimental part:
as §1

The test system of series [8] is E. coli ATCC 25922. The protocol: as §1
The test system of series [9] is S. aureus MDR #3. As for the experimental part: as §1
In series [10] the test system is S. aureus MDR #2. The protocol: as §1
A short description of series [11]: in vitro. As to conditions: serum. Type of series: in vitro ADME, bovine. As for the experimental part: The proteolytic stability of peptide 2 was evaluated in bovine serum (ThermoFisher Scientific, Milan, Italy). Peptide 2 was dissolved in sterile water (200 μM) and incubated with 50% bovine serum at 37 °C. The reaction mixture was incubated at different time intervals (1, 3, 4, 5, 16, and 24 h). An aliquot of the mixture was taken at each pre-established time point and MeCN was added to precipitate serum proteins. Then, the mixture was cooled to 4 °C, centrifuged for 15 min ([…]), and then the supernatant was checked by HPLC using a Phenomenex Jupiter column (4 μm Proteo 90 Å 250 × 21.20 mm) with a linear gradient of MeCN (0.1% TFA) and H2O (0.1% TFA) from 10 to 90% in 20 min and with a flow rate of 1 mL/min.[73] The percentage of the nondegraded peptide was calculated by integrating the peak area of each HPLC chromatogram. Data points are the mean ± SD of three different experiments.

Setting [12] is: MDR clinical isolate 13164462, broth microdilution, 16–18 h at 37 °C, three identical readings of four independent experiments.
The mark [13] stands for this setting: MDR clinical isolate 13667073, broth microdilution, 16–18 h at 37 °C, three identical readings of four independent experiments.

Results on 4 compounds are retold here after paper PMC11250030, “Strategic Single-Residue Substitution in the Antimicrobial Peptide Esc(1–21) Confers Activity against Staphylococcus aureus, Including Drug-Resistant and Biofilm Phenotype” (ACS Infectious Diseases, 2024).

Structures are written as SMILES. In brackets after ≈: the same amount, converted by molar mass. Read-outs that look alike come from different tables or passages of the source. Where a SMILES comes first, the peptide text is derived from it. [ ]: non-standard residue; d: D form. Aib = CC(C)(N)C(=O)O

For the compound `CC[C@H](C)[C@H](NC(=O)CN)C(=O)N[C@@H](Cc1ccccc1)C(=O)N[C@@H](CO)C(=O)N[C@@H](CCCCN)C(=O)N[C@@H](CC(C)C)C(=O)N[C@@H](C)C(=O)NCC(=O)N[C@@H](CCCCN)C(=O)N[C@@H](CCCCN)C(=O)N[C@H](C(=O)N[C@@H](CCCCN)C(=O)N[C@@H](CC(N)=O)C(=O)N[C@@H](CC(C)C)C(=O)N[C@@H](CC(C)C)C(=O)N[C@H](C(=O)N[C@@H](CO)C(=O)NCC(=O)N[C@@H](CC(C)C)C(=O)N[C@@H](CCCCN)C(=O)NCC(N)=O)[C@@H](C)CC)[C@@H](C)CC` [peptide 1] (H-GIFSKLAGKKIKNLLISGLKG-NH2), in series [1], the “lethal dose causing 50% killing (LD50)” value is > 50 µM. Moreover, the minimal inhibitory concentration (MIC) in series [2] (setting [12]) was >100 µM; in [3] it was 3.12 µM (≈ 6.82 µg/mL); in series [4], 3.12 µM (≈ 6.82 µg/mL); in series [5] it was >100 µM; in series [6] (ATCC 25923) it was >100 µM; in series [7], 1.56 µM (≈ 3.41 µg/mL). The MIC in [8] was 1.56 µM (≈ 3.41 µg/mL); in series [9] (setting [13]), 100 µM (≈ 218 µg/mL); in series [10] (MDR #2) it was 100 µM (≈ 218 µg/mL).
Take `CC[C@H](C)[C@H](NC(=O)CN)C(=O)N[C@@H](Cc1ccccc1)C(=O)N[C@@H](CO)C(=O)N[C@@H](CCCCN)C(=O)N[C@@H](CC(C)C)C(=O)N[C@@H](C)C(=O)NC(C)(C)C(=O)N[C@@H](CCCCN)C(=O)N[C@@H](CCCCN)C(=O)N[C@H](C(=O)N[C@@H](CCCCN)C(=O)N[C@@H](CC(N)=O)C(=O)N[C@@H](CC(C)C)C(=O)N[C@@H](CC(C)C)C(=O)N[C@H](C(=O)N[C@@H](CO)C(=O)NCC(=O)N[C@@H](CC(C)C)C(=O)N[C@@H](CCCCN)C(=O)NCC(N)=O)[C@@H](C)CC)[C@@H](C)CC` [peptide 2] (H-GIFSKLA[Aib]KKIKNLLISGLKG-NH2): the MIC stood at 12.5 µM (≈ 27.7 µg/mL) in [2] (setting [12]); 3.12 µM (≈ 6.9 µg/mL) in [3]; 0.78 µM (≈ 1.73 µg/mL) in series [4]; 6.25 µM (≈ 13.8 µg/mL) in series [5]; 12.5 µM (≈ 27.7 µg/mL) in [6] (broth microdilution, Muller Hinton, 16–18 h at 37 °C, three identical readings of four independent experiments); 0.78 µM (≈ 1.73 µg/mL) in series [7]. The minimum inhibitory concentration (MIC) was found to be 0.78 µM (≈ 1.73 µg/mL) in series [8]; 12.5 µM (≈ 27.7 µg/mL) in series [9] (setting [13]); 12.5 µM (≈ 27.7 µg/mL) in series [10] (MDR clinical isolate 13165968, broth microdilution, 16–18 h at 37 °C, three identical readings of four independent experiments). In [11], the share remaining at 1 h, 200 μM is ~90%. Also, the share remaining at 3 h, 200 μM in series [11] is ~75%. The amount remaining at 4 h, 200 μM in series [11] is ~65%. Also, the amount remaining at 5 h, 200 μM in [11] is ~40%. Moreover, in series [11], the share remaining at 16 h, 200 μM was ~40%. Moreover, the amount remaining at 24 h, 200 μM in series [11] was ~15%.
On to `CC[C@H](C)[C@H](NC(=O)CN)C(=O)N[C@@H](Cc1ccccc1)C(=O)N[C@@H](CO)C(=O)N[C@@H](CCCCN)C(=O)N[C@@H](CC(C)C)C(=O)N[C@@H](C)C(=O)N1CCC[C@H]1C(=O)N[C@@H](CCCCN)C(=O)N[C@@H](CCCCN)C(=O)N[C@H](C(=O)N[C@@H](CCCCN)C(=O)N[C@@H](CC(N)=O)C(=O)N[C@@H](CC(C)C)C(=O)N[C@@H](CC(C)C)C(=O)N[C@H](C(=O)N[C@@H](CO)C(=O)NCC(=O)N[C@@H](CC(C)C)C(=O)N[C@@H](CCCCN)C(=O)NCC(N)=O)[C@@H](C)CC)[C@@H](C)CC` [peptide 3] (H-GIFSKLAPKKIKNLLISGLKG-NH2), for which the MIC was >100 µM in [2] (MDR #1); 6.25 µM (≈ 13.9 µg/mL) in [3]; 6.25 µM (≈ 13.9 µg/mL) in [4]; >100 µM in series [5]; >100 µM in series [6] (ATCC 25923); 1.56 µM (≈ 3.47 µg/mL) in series [7]. Further, the minimal inhibitory concentration (MIC) was 3.12 µM (≈ 6.94 µg/mL) in series [8], >100 µM in series [9] (MDR #3) and >100 µM in series [10] (MDR #2).
As to `CC[C@H](C)[C@H](NC(=O)CN)C(=O)N[C@@H](Cc1ccccc1)C(=O)N[C@@H](CO)C(=O)N[C@@H](CCCCN)C(=O)N[C@@H](CC(C)C)C(=O)N[C@@H](C)C(=O)N1CCC[C@@H]1C(=O)N[C@@H](CCCCN)C(=O)N[C@@H](CCCCN)C(=O)N[C@H](C(=O)N[C@@H](CCCCN)C(=O)N[C@@H](CC(N)=O)C(=O)N[C@@H](CC(C)C)C(=O)N[C@@H](CC(C)C)C(=O)N[C@H](C(=O)N[C@@H](CO)C(=O)NCC(=O)N[C@@H](CC(C)C)C(=O)N[C@@H](CCCCN)C(=O)NCC(N)=O)[C@@H](C)CC)[C@@H](C)CC` [peptide 4] (H-GIFSKLA[dP]KKIKNLLISGLKG-NH2), the minimum inhibitory concentration (MIC) was >100 µM in series [2] (MDR #1); 25 µM (≈ 55.6 µg/mL) in [3]; 12.5 µM (≈ 27.8 µg/mL) in [4]; >100 µM in series [5]; >100 µM in series [6] (ATCC 25923); 12.5 µM (≈ 27.8 µg/mL) in series [7]. The figures for the MIC in [8], in series [9] (MDR #3) and in series [10] (MDR #2) were 6.25 µM (≈ 13.9 µg/mL), >100 µM and >100 µM, respectively.
